Experimental data from patent US10556872B2, “Fatty acid synthase inhibitors and methods of use” (Hampton University, priority 2017, dated 2020).

What was measured:
Assay type in all cases: cell-based
H460 lung cancer cells = test: MTT assay, cell viability of H460 lung cancer cells
Procedure: (§1) Antiproliferative effect of FAS inhibitors on MCF-7 cells was determined by performing MTT assay. Roughly, 10,000 cells per well were plated in 96-well cell culture microplate (Costar, USA) and incubated overnight in full media (DMEM containing 10% FBS) for cells to adhere to the plate. Cells were then treated with various concentrations of inhibitors and vehicle for 24 hrs in serum free media. Cell viability was evaluated by the MTT (Sigma-Aldrich, St. Louis, Mont.) assay. The absorbance of solubilized formazan was read at 570 nm using ELISA reader (Bio-TEK, Synergy-1).
(§2) We treated H460 lung cancer cells, MDA-MB-231 breast cancer cells, and PC-3 prostate cancer cells with the FAS inhibitor, Compound 1A.

[1] = system: MDA-MB-231 breast cancer cells; test: MTT assay, cell viability of MDA-MB-231 breast cancer cells; details: MDA-MB-231 cells
Procedure: as §1, §2

[2] = system: PC-3 prostate cancer cells; test: MTT assay, cell viability of PC-3 prostate cancer cells; details: PC-3 cells
Procedure: Antiproliferative effect of FAS inhibitors on MCF-7 cells was determined by performing MTT assay. Roughly, 10,000 cells per well were plated in 96-well cell culture microplate (Costar, USA) and incubated overnight in full media (DMEM containing 10% FBS) for cells to adhere to the plate. […] Cell viability was evaluated by the MTT (Sigma-Aldrich, St. Louis, Mont.) assay. The absorbance of solubilized formazan was read at 570 nm using ELISA reader (Bio-TEK, Synergy-1).
as §2

[3] = system: MCF-7 breast cancer cells; test: MTT assay, cell viability of MCF-7 breast cancer cells; details: Homo sapiens, MCF7; MCF-7 cells, 24 hours of treatment
Procedure: An MTT assay was performed with the FAS inhibiting compounds of Formulae II, III, IV and V (e.g., Compound 1A) on MCF-7 breast cancer cells, with an IC50 of about […] after 24 hours of treatment. The results are illustrated in FIG. 2.
as §1

Structure (SMILES) | anticancer effect (MTT assay), fragment alone (H460 lung cancer cells) | anticancer effect (MTT assay), fragment alone [1] | anticancer effect (MTT assay), fragment alone [2] | cell viability (MTT) (H460 lung cancer cells; 24-hr treatment (FIG. 4: 10 μM)) | IC50 [3] [µM] | cell viability (MTT) ([1]; 24-hr treatment (FIG. 5: 10 μM)) | cell viability (MTT) ([2]; 72-hr treatment (FIG. 6B: 10 μM))
O=C(CCn1cc(Br)c(=O)[nH]c1=O)OCCO [5-Bromouracil ester, 2-Hydroxyethyl3-(5-bromo-2,4-dioxo-3,4-dihydropirimidin-1(2H)-yl)propanoate] | no anticancer effect | no anticancer effect | no anticancer effect |  |  |  | 
O=c1[nH]cc(Br)c(=O)[nH]1 [5-Bromouracil] | no anticancer effect | no anticancer effect | no anticancer effect |  |  |  | 
CCCCCCCCCCCCCCCCOC(=O)CCn1cc(Br)c(=O)[nH]c1=O [Compound 1A, Hexadecyl 3-(5-bromo-2,4-dioxo-3,4-dihydropyrimidin-1(2H)-yl)propanoate] |  |  |  | significantly reduced the viability | ~10 | significantly reduced the viability | reduced the viability
